Reference: ChEMBL document CHEMBL5608223, “Chemical Probes to Investigate Central Nervous System Disorders: Design, Synthesis and Mechanism of Action of a Potent Human Serine Racemase Inhibitor” (ACS Med Chem Lett, 2024)
The source made the active and inactive calls. The rule behind the calls is not given here.

What was measured:
[1] = target: T1, Serine racemase (Homo sapiens) (UniProt Q9GZT4); experiment: Inhibition of recombinant hexa-His tagged human SR extracted from Escherichia coli BL21 CodonPlusR (DE3)-RIL cells at 2 mM preincubated with compound followed by L-serine addition and measured after 10 mins
T1 sequence (whole entry): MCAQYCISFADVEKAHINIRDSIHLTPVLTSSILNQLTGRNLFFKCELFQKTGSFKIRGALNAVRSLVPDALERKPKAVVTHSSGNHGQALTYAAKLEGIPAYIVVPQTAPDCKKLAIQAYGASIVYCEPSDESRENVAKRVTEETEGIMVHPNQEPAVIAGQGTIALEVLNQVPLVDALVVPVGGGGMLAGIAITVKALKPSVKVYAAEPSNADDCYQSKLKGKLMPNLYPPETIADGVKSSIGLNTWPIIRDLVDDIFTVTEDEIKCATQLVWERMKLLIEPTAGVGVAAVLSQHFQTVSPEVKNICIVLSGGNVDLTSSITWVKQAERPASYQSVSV

[2] = target: T2, Serine racemase (Homo sapiens, UniProt Q9GZT4); experiment: Inhibition of human SR extracted from Escherichia coli assessed as beta-eliminase activity using L-Ser as substrate by spectrophotometer assay
T2 sequence (Q9GZT4 whole entry): T1 sequence (whole entry)

[3] = target: T3, Serine racemase (Mus musculus, UniProt Q9QZX7); experiment: Inhibition of mouse SR using L-Serine as substrate incubated for 2 hrs in presence of PLP by spectrophotometer assay
T3 sequence (Q9QZX7 whole entry): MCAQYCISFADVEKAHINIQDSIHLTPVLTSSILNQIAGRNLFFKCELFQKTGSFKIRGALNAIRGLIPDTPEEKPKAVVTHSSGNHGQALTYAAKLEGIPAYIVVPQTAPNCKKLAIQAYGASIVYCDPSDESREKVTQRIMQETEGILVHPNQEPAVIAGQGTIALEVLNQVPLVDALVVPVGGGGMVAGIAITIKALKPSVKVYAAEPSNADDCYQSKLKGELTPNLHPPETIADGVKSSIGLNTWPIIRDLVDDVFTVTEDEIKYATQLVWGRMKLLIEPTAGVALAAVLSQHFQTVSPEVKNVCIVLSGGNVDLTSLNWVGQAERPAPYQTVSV

[4] = target: T4, Phosphoserine aminotransferase (Homo sapiens, UniProt Q9Y617); experiment: Inhibition of human PSAT extracted from Escherichia coli BL21(DE3) cells preincubated with compound followed by L-OPS addition in presence of PLP
T4 sequence (Q9Y617 whole entry): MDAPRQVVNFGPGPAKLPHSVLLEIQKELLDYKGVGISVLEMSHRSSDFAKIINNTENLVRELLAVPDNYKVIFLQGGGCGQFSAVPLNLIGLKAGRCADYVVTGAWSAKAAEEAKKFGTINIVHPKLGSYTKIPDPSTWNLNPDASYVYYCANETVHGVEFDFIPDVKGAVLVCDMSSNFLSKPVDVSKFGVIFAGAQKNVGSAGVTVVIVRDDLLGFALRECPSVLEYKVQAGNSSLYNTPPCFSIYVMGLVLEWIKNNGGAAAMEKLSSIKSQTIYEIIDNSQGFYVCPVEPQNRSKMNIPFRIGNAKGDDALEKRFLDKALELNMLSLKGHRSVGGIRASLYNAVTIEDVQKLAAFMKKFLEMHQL

N[C@@H](Cc1ccccc1)C(=O)O
Activity [1]: inactive

O=C(O)CC(=O)O [MALONIC ACID]
IC50 [2]: 0.071 mM

N[C@H]1CONC1=O [LEVCYCLOSERINE]
IC50 [3]: 2.27 mM

O=C(O)[C@H]1C[C@H]1C(=O)O
IC50 [2]: 3 mM

NOC(Cc1ccc(-c2ccccc2)cc1)C(=O)O (stereo not given)
IC50 [4]: 0.0022 mM
